Paper PMC4508061, “Selectivity Profiling and Biological Activity of Novel β-Carbolines as Potent and Selective DYRK1 Kinase Inhibitors” (PLoS ONE, 2015)

Key:
Assay in all cases: ProQinase radiometric kinase panel
Settings in all cases: mean of 2 exp.
[1] = biological target: MAPKAPK3 (Homo sapiens, UniProt Q16644)
[2] = biological target: ITK (Homo sapiens, UniProt Q08881)
[3] = biological target: PKC-nu (Homo sapiens, UniProt O94806)
[4] = biological target: PRKG1 (Homo sapiens, UniProt Q13976)
[5] = biological target: INSR-R (Homo sapiens, UniProt P14616)
[6] = biological target: TXK (Homo sapiens, UniProt P42681)
[7] = biological target: BTK (Homo sapiens, UniProt Q06187)
[8] = biological target: CK1-delta (Homo sapiens, UniProt P48730)
[9] = biological target: CDK1/CycB1 (Homo sapiens, UniProt P06493)
[10] = biological target: MST2 (Homo sapiens, UniProt Q13188)
[11] = biological target: ROCK2 (Homo sapiens, UniProt O75116)
[12] = biological target: GRK4 (Homo sapiens, UniProt P32298)
[13] = biological target: EPHA3 (Homo sapiens, UniProt P29320)
[14] = biological target: CDK4/CycD3 (Homo sapiens, UniProt P11802)
[15] = biological target: JNK1 (Homo sapiens, UniProt P45983)
[16] = biological target: Aurora-C (Homo sapiens, UniProt Q9UQB9)
[17] = biological target: RPS6KA6 (Homo sapiens, UniProt Q9UK32)
[18] = biological target: PKC-theta (Homo sapiens, UniProt Q04759)
[19] = biological target: CHK1 (Homo sapiens, UniProt O14757)
[20] = biological target: MYLK2 (Homo sapiens, UniProt Q9H1R3)
[21] = biological target: TYK2 (Homo sapiens, UniProt P29597)
[22] = biological target: MAP3K1 (Homo sapiens, UniProt Q13233)
[23] = biological target: AMPK-alph1 (Homo sapiens, UniProt Q13131)
[24] = biological target: MARK2 (Homo sapiens, UniProt Q7KZI7)
[25] = biological target: BMPR1A (Homo sapiens, UniProt P36894)
[26] = biological target: NEK7 (Homo sapiens, UniProt Q8TDX7)
[27] = biological target: FGR (Homo sapiens, UniProt P09769)
[28] = biological target: IKK-beta (Homo sapiens, UniProt O14920)
[29] = biological target: NEK3 (Homo sapiens, UniProt P51956)
[30] = biological target: LCK (Homo sapiens, UniProt P06239)
Method: Gini coefficients were calculated and the Lorenz curve (Fig 3B) was plotted by applying the Microsoft Excel spreadsheet provided by Graczyk [44].
radiometric protein kinase assays.

[31] = biological target: SGK2 (Homo sapiens, UniProt Q9HBY8)
[32] = biological target: SRPK1 (Homo sapiens, UniProt Q96SB4)
[33] = biological target: ARK5 (Homo sapiens, UniProt O60285)
[34] = biological target: TRK-C (Homo sapiens, UniProt Q16288)
[35] = biological target: YES (Homo sapiens, UniProt P07947)
[36] = biological target: MARK4 (Homo sapiens, UniProt Q96L34)
[37] = biological target: MAP3K10 (Homo sapiens, UniProt Q02779)
[38] = biological target: PAK3 (Homo sapiens, UniProt O75914)
[39] = biological target: COT (Homo sapiens, UniProt P41279)

Chain of RPS6KA6 (Q9UK32 whole entry): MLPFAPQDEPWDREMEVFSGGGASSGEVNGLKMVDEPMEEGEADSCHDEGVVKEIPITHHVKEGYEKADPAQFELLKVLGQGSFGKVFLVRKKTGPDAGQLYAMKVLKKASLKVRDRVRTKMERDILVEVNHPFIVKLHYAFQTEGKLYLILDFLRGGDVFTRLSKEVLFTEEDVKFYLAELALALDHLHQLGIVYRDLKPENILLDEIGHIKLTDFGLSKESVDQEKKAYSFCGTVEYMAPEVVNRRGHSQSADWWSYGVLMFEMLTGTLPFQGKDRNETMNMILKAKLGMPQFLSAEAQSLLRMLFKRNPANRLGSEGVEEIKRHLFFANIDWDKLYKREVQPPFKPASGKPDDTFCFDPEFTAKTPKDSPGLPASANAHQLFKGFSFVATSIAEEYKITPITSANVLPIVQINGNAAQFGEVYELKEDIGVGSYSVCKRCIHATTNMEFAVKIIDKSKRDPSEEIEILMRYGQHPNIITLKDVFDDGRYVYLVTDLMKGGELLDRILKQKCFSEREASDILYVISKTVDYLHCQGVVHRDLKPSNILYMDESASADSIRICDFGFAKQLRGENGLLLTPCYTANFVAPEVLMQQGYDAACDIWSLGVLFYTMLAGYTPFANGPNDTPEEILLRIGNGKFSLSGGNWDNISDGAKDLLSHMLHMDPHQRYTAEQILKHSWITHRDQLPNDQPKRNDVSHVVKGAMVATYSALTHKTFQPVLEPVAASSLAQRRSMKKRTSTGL
Chain of PKC-nu (O94806 whole entry): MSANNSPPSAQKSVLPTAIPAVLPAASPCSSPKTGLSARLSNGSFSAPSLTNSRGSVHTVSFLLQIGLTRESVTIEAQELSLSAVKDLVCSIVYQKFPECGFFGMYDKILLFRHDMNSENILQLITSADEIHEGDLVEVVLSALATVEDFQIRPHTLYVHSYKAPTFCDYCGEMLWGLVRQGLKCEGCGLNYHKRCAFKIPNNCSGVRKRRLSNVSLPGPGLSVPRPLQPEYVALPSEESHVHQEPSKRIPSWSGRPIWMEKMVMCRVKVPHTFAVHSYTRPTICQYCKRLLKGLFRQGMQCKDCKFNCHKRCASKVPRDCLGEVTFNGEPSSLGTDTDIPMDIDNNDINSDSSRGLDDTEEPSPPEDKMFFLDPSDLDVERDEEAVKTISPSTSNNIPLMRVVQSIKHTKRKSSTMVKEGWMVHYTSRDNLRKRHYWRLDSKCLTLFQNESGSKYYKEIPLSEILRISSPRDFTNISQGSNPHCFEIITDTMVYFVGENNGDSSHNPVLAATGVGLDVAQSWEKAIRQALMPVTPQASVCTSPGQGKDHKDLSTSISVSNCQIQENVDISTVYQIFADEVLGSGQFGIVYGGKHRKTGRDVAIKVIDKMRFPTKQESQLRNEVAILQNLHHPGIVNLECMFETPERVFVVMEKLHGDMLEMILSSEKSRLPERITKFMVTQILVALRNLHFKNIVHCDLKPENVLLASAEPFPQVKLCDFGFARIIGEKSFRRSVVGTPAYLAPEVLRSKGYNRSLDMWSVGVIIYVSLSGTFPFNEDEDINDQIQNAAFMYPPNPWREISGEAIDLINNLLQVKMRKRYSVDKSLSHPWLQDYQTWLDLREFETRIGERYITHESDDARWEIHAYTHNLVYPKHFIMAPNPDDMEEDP
Chain of BMPR1A (P36894 24-532): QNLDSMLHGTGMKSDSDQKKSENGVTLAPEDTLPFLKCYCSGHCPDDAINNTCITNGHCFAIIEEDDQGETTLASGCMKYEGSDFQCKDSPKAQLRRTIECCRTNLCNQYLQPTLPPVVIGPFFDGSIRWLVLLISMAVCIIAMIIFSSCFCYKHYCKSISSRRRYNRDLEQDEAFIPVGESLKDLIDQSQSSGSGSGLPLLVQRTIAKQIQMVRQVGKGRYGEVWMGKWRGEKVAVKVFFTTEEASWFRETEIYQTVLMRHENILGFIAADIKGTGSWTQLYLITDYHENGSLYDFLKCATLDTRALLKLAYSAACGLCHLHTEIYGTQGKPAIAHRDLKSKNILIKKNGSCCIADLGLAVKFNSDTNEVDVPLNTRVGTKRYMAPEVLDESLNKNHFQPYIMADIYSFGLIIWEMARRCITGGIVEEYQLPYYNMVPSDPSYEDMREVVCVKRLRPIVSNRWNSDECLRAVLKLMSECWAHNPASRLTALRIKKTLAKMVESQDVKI
Chain of TYK2 (P29597 whole entry): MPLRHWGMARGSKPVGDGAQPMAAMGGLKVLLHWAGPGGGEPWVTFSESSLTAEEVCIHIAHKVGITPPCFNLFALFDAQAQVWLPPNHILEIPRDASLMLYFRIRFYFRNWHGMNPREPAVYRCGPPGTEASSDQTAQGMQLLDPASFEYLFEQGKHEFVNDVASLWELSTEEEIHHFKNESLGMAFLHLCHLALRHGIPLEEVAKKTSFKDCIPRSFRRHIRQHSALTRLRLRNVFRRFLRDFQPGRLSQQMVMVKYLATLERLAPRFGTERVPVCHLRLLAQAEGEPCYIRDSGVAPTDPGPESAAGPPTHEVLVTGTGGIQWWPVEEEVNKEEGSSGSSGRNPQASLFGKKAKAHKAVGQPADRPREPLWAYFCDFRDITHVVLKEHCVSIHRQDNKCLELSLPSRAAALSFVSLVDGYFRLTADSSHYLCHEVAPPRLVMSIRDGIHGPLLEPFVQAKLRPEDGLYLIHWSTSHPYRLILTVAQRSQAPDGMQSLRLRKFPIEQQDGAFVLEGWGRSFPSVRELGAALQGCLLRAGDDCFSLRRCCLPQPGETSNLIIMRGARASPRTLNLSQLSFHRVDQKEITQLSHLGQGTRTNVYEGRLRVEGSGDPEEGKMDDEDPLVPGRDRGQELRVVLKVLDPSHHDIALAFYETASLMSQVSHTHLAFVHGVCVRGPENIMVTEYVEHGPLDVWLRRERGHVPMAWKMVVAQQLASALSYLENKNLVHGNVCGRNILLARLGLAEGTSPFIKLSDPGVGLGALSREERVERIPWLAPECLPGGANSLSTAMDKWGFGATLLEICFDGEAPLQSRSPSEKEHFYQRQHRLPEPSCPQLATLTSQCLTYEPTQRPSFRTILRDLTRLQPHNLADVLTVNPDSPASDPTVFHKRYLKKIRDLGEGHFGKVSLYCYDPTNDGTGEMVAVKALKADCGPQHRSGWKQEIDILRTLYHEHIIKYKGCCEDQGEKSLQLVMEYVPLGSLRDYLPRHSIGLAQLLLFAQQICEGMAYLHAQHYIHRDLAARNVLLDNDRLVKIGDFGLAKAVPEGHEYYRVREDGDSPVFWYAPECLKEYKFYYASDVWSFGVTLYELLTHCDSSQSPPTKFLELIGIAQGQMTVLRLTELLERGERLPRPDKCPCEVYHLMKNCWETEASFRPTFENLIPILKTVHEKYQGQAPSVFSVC
Chain of SRPK1 (Q96SB4 whole entry): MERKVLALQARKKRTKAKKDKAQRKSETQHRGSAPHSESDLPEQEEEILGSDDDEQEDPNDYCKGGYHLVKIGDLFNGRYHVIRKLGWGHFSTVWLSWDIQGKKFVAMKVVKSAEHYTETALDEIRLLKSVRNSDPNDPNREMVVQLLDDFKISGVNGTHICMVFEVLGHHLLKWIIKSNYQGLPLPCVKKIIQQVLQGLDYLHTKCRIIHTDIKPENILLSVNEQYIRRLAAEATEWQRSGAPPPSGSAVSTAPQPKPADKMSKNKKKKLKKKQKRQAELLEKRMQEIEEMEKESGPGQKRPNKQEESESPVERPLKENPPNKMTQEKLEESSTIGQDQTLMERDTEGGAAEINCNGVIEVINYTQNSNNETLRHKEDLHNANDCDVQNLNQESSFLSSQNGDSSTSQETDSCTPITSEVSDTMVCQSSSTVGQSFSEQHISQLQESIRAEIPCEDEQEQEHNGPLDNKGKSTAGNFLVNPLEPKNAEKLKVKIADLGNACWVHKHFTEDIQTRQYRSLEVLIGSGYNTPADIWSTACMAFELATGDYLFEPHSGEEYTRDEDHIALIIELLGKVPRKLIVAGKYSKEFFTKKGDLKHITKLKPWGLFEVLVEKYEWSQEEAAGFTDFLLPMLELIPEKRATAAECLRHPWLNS
Chain of LCK (P06239 whole entry): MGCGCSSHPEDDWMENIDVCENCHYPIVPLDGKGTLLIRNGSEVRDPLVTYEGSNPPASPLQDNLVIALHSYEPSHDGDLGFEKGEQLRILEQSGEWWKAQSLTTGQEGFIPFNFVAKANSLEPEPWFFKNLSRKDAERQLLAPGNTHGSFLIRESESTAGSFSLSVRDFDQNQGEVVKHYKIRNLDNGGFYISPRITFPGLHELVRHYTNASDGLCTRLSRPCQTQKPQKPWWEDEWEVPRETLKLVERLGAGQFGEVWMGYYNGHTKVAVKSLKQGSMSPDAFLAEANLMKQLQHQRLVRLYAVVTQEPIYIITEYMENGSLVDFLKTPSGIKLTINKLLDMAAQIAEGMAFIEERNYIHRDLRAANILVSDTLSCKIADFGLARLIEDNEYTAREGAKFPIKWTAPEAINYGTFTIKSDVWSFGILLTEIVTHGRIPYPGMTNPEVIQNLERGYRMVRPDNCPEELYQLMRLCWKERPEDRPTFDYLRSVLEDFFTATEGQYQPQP
Chain of FGR (P09769 whole entry): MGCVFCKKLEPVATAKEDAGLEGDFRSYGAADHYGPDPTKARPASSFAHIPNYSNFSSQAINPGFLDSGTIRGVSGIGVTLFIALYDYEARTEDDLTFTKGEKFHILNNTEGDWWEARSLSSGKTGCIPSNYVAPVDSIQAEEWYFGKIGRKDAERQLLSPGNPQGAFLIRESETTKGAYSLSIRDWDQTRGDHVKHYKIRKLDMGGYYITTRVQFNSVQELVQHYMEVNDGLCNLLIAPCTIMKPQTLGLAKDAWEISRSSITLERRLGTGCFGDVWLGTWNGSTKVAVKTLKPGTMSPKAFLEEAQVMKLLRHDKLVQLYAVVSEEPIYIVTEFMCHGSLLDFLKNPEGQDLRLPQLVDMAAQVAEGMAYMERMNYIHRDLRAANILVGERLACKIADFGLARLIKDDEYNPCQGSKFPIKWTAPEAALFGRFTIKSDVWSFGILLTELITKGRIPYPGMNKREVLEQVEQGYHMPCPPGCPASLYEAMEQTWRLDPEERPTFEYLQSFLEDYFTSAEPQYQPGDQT

Structure (SMILES): COc1ccc2c3ccnc(Cl)c3n(CC#N)c2c1 [AnnH75]
- residual activity at 1 µM, Mean [1]: 94 % of control
- residual activity at 1 µM, Mean [2]: 95 % of control
- residual activity at 1 µM, Mean [3]: 87 % of control
- residual activity at 1 µM, Mean [4]: 87 % of control
- residual activity at 1 µM, Mean [5]: 97 % of control
- residual activity at 1 µM, Mean [6]: 94 % of control
- residual activity at 1 µM, Mean [7]: 96 % of control
- residual activity at 1 µM, Mean [8]: 71 % of control
- residual activity at 1 µM, Mean [9]: 81 % of control
- residual activity at 1 µM, Mean [10]: 101 % of control
- residual activity at 1 µM, Mean [11]: 79 % of control
- residual activity at 1 µM, Mean [12]: 49 % of control
- residual activity at 1 µM, Mean [13]: 105 % of control
- residual activity at 1 µM, Mean [14]: 89 % of control
- residual activity at 1 µM, Mean [15]: 99 % of control
- residual activity at 1 µM, Mean [16]: 97 % of control
- residual activity at 1 µM, Mean [17]: 98 % of control
- residual activity at 1 µM, Mean [18]: 113 % of control
- residual activity at 1 µM, Mean [19]: 100 % of control
- residual activity at 1 µM, Mean [20]: 90 % of control
- residual activity at 1 µM, Mean [21]: 96 % of control
- residual activity at 1 µM, Mean [22]: 97 % of control
- residual activity at 1 µM, Mean [23]: 92 % of control
- residual activity at 1 µM, Mean [24]: 98 % of control
- residual activity at 1 µM, Mean [25]: 89 % of control
- residual activity at 1 µM, Mean [26]: 93 % of control
- residual activity at 1 µM, Mean [27]: 101 % of control
- residual activity at 1 µM, Mean [28]: 91 % of control
- residual activity at 1 µM, Mean [29]: 91 % of control
- residual activity at 1 µM, Mean [30]: 91 % of control
- residual activity at 1 µM, Mean [31]: 99 % of control
- residual activity at 1 µM, Mean [32]: 111 % of control
- residual activity at 1 µM, Mean [33]: 94 % of control
- residual activity at 1 µM, Mean [34]: 87 % of control
- residual activity at 1 µM, Mean [35]: 83 % of control
- residual activity at 1 µM, Mean [36]: 104 % of control
- residual activity at 1 µM, Mean [37]: 91 % of control
- residual activity at 1 µM, Mean [38]: 95 % of control
- residual activity at 1 µM, Mean [39]: 88 % of control
